Experimental data taken from patent publication US10405547B2, “Substituted cyclic amides as herbicides” (FMC Corporation, priority 2015, dated 2019).

Columns and labels:
Format in all cases: in vivo
[1] = system: barnyardgrass (Echinochloa crus-galli); assay: Test A preemergence, barnyardgrass; conditions: 0 to 100 scale (0 no effect, 100 complete control)
Procedure, shortened: (§1)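 Visual injury scores (0 no effect to 100 complete control) taken about 10 days after treatment, relative to untreated plants. Treatments were directed soil spray at planting for preemergence, or foliar application to one- to two-leaf plants (2-10 cm) for postemergence, with surfactant-containing formulations in loam–sand pots.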

kochia (Kochia scoparia) [2] = assay: Test A preemergence, kochia; conditions: 0 to 100 scale (0 no effect, 100 complete control)
Procedure, shortened: as §1

[3] = system: ragweed (common ragweed, Ambrosia elatior); assay: Test A preemergence, ragweed; conditions: 0 to 100 scale (0 no effect, 100 complete control)
Procedure, shortened: as §1

[4] = system: ryegrass, Italian (Lolium multiflorum); assay: Test A preemergence, Italian ryegrass; conditions: 0 to 100 scale (0 no effect, 100 complete control)
Procedure, shortened: as §1

[5] = system: foxtail, giant (Setaria faberii); assay: Test A preemergence, giant foxtail; conditions: 0 to 100 scale (0 no effect, 100 complete control)
Procedure, shortened: as §1

[6] = system: pigweed (Amaranthus retroflexus); assay: Test A preemergence, pigweed; conditions: 0 to 100 scale (0 no effect, 100 complete control)
Procedure, shortened: as §1

[7] = system: barnyardgrass (Echinochloa crus-galli); assay: Test A postemergence, barnyardgrass; conditions: visual injury, 0 to 100 scale (0 no effect, 100 complete control), approximately 10 days
Procedure, shortened: as §1

kochia (Kochia scoparia) [8] = assay: Test A postemergence, kochia; conditions: visual injury, 0 to 100 scale (0 no effect, 100 complete control), approximately 10 days
Procedure, shortened: as §1

[9] = system: ragweed (common ragweed, Ambrosia elatior); assay: Test A postemergence, ragweed; conditions: visual injury, 0 to 100 scale (0 no effect, 100 complete control), approximately 10 days
Procedure, shortened: as §1

[10] = system: ryegrass, Italian (Lolium multiflorum); assay: Test A postemergence, Italian ryegrass; conditions: visual injury, 0 to 100 scale (0 no effect, 100 complete control), approximately 10 days
Procedure, shortened: as §1

[11] = system: foxtail, giant (Setaria faberii); assay: Test A postemergence, giant foxtail; conditions: visual injury, 0 to 100 scale (0 no effect, 100 complete control), approximately 10 days
Procedure, shortened: as §1

[12] = system: pigweed (Amaranthus retroflexus); assay: Test A postemergence, pigweed; conditions: visual injury, 0 to 100 scale (0 no effect, 100 complete control), approximately 10 days
Procedure, shortened: as §1

[13] = system: blackgrass (Alopecurus myosuroides); assay: Test A postemergence, blackgrass; conditions: visual injury, 0 to 100 scale (0 no effect, 100 complete control), approximately 10 days
Procedure, shortened: as §1

[14] = system: galium (catchweed bedstraw, Galium aparine); assay: Test A postemergence, galium; conditions: visual injury, 0 to 100 scale (0 no effect, 100 complete control), approximately 10 days
Procedure, shortened: as §1

[15] = system: wheat (Triticum aestivum); assay: Test A postemergence, wheat; conditions: visual injury, 0 to 100 scale (0 no effect, 100 complete control), approximately 10 days
Procedure, shortened: as §1

corn (Zea mays) = assay: Test A postemergence, corn; conditions: visual injury, 0 to 100 scale (0 no effect, 100 complete control), approximately 10 days
Procedure, shortened: as §1

rice (Oryza sativa) = assay: Test B flooded paddy test, rice; conditions: 250 g ai/ha, applied to paddy water, visual rating after 13 to 15 days, scale 0 (no effect) to 100 (complete control)
Procedure, shortened: (§2)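 Flooded 3 cm over soil; compound into paddy water; depth kept constant. Greenhouse 13–15 d.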

[16] = system: sedge, umbrella (small-flower umbrella sedge, Cyperus difformis); assay: Test B flooded paddy test, umbrella sedge; conditions: 250 g ai/ha, applied to paddy water, visual rating after 13 to 15 days, scale 0 (no effect) to 100 (complete control)
Procedure, shortened: as §2

[17] = system: ducksalad (Heteranthera limosa); assay: Test B flooded paddy test, ducksalad; conditions: 250 g ai/ha, applied to paddy water, visual rating after 13 to 15 days, scale 0 (no effect) to 100 (complete control)
Procedure, shortened: as §2

[18] = system: barnyardgrass (Echinochloa crus-galli); assay: Test B flooded paddy test, barnyardgrass; conditions: 250 g ai/ha, applied to paddy water, visual rating after 13 to 15 days, scale 0 (no effect) to 100 (complete control)
Procedure, shortened: as §2

Structure (SMILES) | Plant response rating, Barnyardgrass ([1]; 125 g ai/ha) | Plant response rating, Barnyardgrass ([1]; 500 g ai/ha) | Plant response rating, Kochia (kochia (Kochia scoparia) [2]; 125 g ai/ha) | Plant response rating, Kochia (kochia (Kochia scoparia) [2]; 500 g ai/ha) | Plant response rating, Ragweed ([3]; 125 g ai/ha) | Plant response rating, Ragweed ([3]; 500 g ai/ha) | Plant response rating, Ryegrass, Italian ([4]; 125 g ai/ha) | Plant response rating, Ryegrass, Italian ([4]; 500 g ai/ha) | Plant response rating, Foxtail, Giant ([5]; 125 g ai/ha) | Plant response rating, Foxtail, Giant ([5]; 500 g ai/ha) | Plant response rating, Pigweed ([6]; 125 g ai/ha) | Plant response rating, Pigweed ([6]; 500 g ai/ha) | Plant response rating, Barnyardgrass ([7]; 125 g ai/ha) | Plant response rating, Barnyardgrass ([7]; 500 g ai/ha) | Plant response rating, Kochia (kochia (Kochia scoparia) [8]; 125 g ai/ha) | Plant response rating, Kochia (kochia (Kochia scoparia) [8]; 500 g ai/ha) | Plant response rating, Ragweed ([9]; 125 g ai/ha) | Plant response rating, Ragweed ([9]; 500 g ai/ha) | Plant response rating, Ryegrass, Italian ([10]; 125 g ai/ha) | Plant response rating, Ryegrass, Italian ([10]; 500 g ai/ha) | further results
O=C1NCC(c2cccc(OCC3OCCO3)c2)C1C(=O)Nc1ccccc1F (stereo not drawn) [Compound 8] | 50 | 80 | 0 | 0 | 0 | 0 | 0 | 0 | 80 | 90 | 0 | 0 | 0 | 70 | 0 | 0 | 0 | 10 | 0 | 0 | Plant response rating, Foxtail, Giant ([11]; 125 g ai/ha): 0; Plant response rating, Foxtail, Giant ([11]; 500 g ai/ha): 70; Plant response rating, Pigweed ([12]; 125 g ai/ha): 0; Plant response rating, Pigweed ([12]; 500 g ai/ha): 0; Plant response rating, Blackgrass ([13]; 125 g ai/ha): 0; Plant response rating, Blackgrass ([13]; 500 g ai/ha): 20; Plant response rating, Galium ([14]; 125 g ai/ha): 0; Plant response rating, Galium ([14]; 500 g ai/ha): 0; Plant response rating, Wheat ([15]; 125 g ai/ha): 0; Plant response rating, Wheat ([15]; 500 g ai/ha): 0; Plant response rating, Corn (corn (Zea mays); 125 g ai/ha): 0; Plant response rating, Corn (corn (Zea mays); 500 g ai/ha): 20; Plant response rating, Rice (Flood) (rice (Oryza sativa)): 0; Plant response rating, Sedge, Umbrella (Flood) [16]: 0; Plant response rating, Ducksalad (Flood) [17]: 35; Plant response rating, Barnyardgrass (Flood) [18]: 0
O=C1NCC(c2cccc(OCc3ccco3)c2)C1C(=O)Nc1cccc(F)c1F (stereo not drawn) [Compound 9] | 10 | 70 | 0 | 0 | 0 | 0 | 0 | 0 | 10 | 70 | 0 | 0 | 30 | 60 | 0 | 0 | 0 | 0 | 0 | 0 | Plant response rating, Foxtail, Giant ([11]; 125 g ai/ha): 0; Plant response rating, Foxtail, Giant ([11]; 500 g ai/ha): 50; Plant response rating, Pigweed ([12]; 125 g ai/ha): 0; Plant response rating, Pigweed ([12]; 500 g ai/ha): 0; Plant response rating, Blackgrass ([13]; 125 g ai/ha): 0; Plant response rating, Blackgrass ([13]; 500 g ai/ha): 0; Plant response rating, Galium ([14]; 125 g ai/ha): 0; Plant response rating, Galium ([14]; 500 g ai/ha): 0; Plant response rating, Wheat ([15]; 125 g ai/ha): 0; Plant response rating, Wheat ([15]; 500 g ai/ha): 0; Plant response rating, Corn (corn (Zea mays); 125 g ai/ha): 0; Plant response rating, Corn (corn (Zea mays); 500 g ai/ha): 20; Plant response rating, Rice (Flood) (rice (Oryza sativa)): 0; Plant response rating, Sedge, Umbrella (Flood) [16]: 30; Plant response rating, Ducksalad (Flood) [17]: 30; Plant response rating, Barnyardgrass (Flood) [18]: 0
